Residues, ends and D or L forms follow the SMILES beside them.
Key:
aconitase = assay: Total (cytoplasmic and mitochondrial) enzymatic activity of aconitase in fibroblasts, Bioxytech Aconitase-340 kit; type: cell-based, human
Method: (§1) The aim of this study was to determine the effect of the SEQ ID No. 2 peptide on the enzymatic activity of aconitase. For this, the total enzymatic activity (cytoplasmic and mitochondrial) and the mitochondrial enzymatic activity of aconitase were measured.
Protocol: Normal human fibroblasts were treated with a 1% solution of a 50-ppm SEQ ID No. 2 peptide representative of the peptide family according to the invention, for 48 hr, and were then subjected to UVB radiation of 100 mJ/cm^2. After irradiation, the cells were treated under the same conditions for another 24 hr. Negative controls were achieved under the same conditions, but in the absence of the SEQ ID No. 2 peptide.
To evaluate the enzymatic activity of aconitase, the fibroblasts were then collected and centrifuged in PBS buffer. […]
(§2) The measurement of the enzymatic activity of aconitase was made using the Oxis Bioxytech Aconitase-340 assay kit (Oxis International), according to the following principle: aconitase causes isomerization of the citrate to isocitrate. […] It is the formation of NADPH that is quantified spectrophotometrically at 340 nm. Under the experimental conditions chosen, the rate of NADPH formation is proportional to the quantity of aconitase. The analysis of the kinetics of NADPH appearance enables the concentration of aconitase in the sample to be calculated (in mU/ml)

human dermal fibroblasts = type: cell-based; details: 48 h, 0.5 ppm
Method: The aim of this study was to determine the protective effect of the SEQ ID No. 2 peptide with respect to dermal fibroblasts subjected to an oxidative stress caused by oxygenated water (H2O2) in a concentration of 4 mM or 5 mM. For this, cellular viability tests were performed using the MTT technique. Protocol: Human dermal fibroblasts were treated with a 1% solution of a 50-ppm SEQ ID No. 2 peptide for 24 hours, subjected to an oxidative stress caused by 4 mM or 5 mM of H2O2 for 30 minutes, and then cultivated for another 24 hours in the presence of the same concentration of SEQ ID No. 2 peptide. Controls treated with neither the peptide nor H2O2 and controls treated with the peptide alone were achieved under the same conditions. At the end of the experiment, the cells were incubated in a solution containing 0.1 mg/ml of MTT (3-[4,5-dimethylthiazole-2-yl]-2,5-diphenyltetrazolium bromide) according to the protocol described in example 3

mitochondrial aconitase = biological target: T1, mitochondrial aconitase (Homo sapiens, UniProt Q99798); assay: Enzymatic activity of mitochondrial aconitase in the mitochondrial fraction of fibroblasts, Bioxytech Aconitase-340 kit; type: cell-based; details: concentration printed as 0.05 ppm
T1 construct: endogenous in cells; host or cells: normal human fibroblasts, mitochondrial fraction (10,000 g pellet)
T1 sequence (Q99798 28-780): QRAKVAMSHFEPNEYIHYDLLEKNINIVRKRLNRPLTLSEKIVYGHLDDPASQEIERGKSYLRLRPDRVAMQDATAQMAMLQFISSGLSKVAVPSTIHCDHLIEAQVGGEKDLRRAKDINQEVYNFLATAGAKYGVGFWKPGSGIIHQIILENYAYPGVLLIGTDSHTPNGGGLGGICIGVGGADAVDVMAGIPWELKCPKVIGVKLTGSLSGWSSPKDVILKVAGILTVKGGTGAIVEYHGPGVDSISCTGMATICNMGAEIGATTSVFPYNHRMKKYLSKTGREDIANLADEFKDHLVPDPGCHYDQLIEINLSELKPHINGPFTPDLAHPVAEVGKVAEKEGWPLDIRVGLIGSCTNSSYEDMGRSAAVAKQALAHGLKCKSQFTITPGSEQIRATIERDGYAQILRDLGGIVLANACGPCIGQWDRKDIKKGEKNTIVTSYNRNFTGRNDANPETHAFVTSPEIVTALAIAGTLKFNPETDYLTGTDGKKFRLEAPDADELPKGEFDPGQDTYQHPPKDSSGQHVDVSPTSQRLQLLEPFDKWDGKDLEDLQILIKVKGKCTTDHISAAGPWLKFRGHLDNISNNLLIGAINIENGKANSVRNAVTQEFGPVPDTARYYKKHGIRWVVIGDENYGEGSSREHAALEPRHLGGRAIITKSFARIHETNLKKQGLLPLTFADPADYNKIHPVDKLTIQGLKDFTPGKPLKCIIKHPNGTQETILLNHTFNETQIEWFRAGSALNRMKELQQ
Method: as §1
[…] After irradiation, the cells were treated under the same conditions for another 24 hr. Negative controls were achieved under the same conditions, but in the absence of the SEQ ID No. 2 peptide.
To evaluate the enzymatic activity of aconitase, the fibroblasts were then collected and centrifuged in PBS buffer. A portion of the cells was then processed to measure total enzymatic activity; another portion was used to isolate the mitochondrial fraction according to the following protocol. […]
as §2

[1] = test system: primary human fibroblasts; assay: Comet test (single-cell gel electrophoresis), DNA damage after UVB irradiation; type: cell-based; details: UVB 100 mJ/cm^2, 0.5 ppm peptide
Method: A study of the cytoprotective effect of SEQ ID No. 2 peptide was made by evaluating the damage caused at the DNA level. This study was done using the comet (or single-cell gel electrophoresis) test, a quick and sensitive micro-electrophoretic technique that enables breaks in the DNA to be visualized and quantified in individual cells.
Protocol: Primary human fibroblasts were seeded in […] dishes. When the cells reached 70% coalescence, they were treated with SEQ ID No. 2 peptide diluted to 1% (starting from a 50-ppm solution) for 24 hours. The cells were then subjected to UVB irradiation at 100 mJ/cm^2, then cultivated in the presence of the peptide for another 24 hours. The dishes not treated with the peptide served as controls. A cellular suspension of 100,000 cells/ml was then achieved, 500 μl were removed, inserted into an agarose solution, and run between slide and cover glass. The cells were lysed in the cold. The DNA was then denatured with an alkaline buffer and subjected to a brief electrophoresis (250 mA for 30 minutes), and stained with propidium iodate. The slides were then observed under a fluorescence microscope. An altered cell sees its DNA stretch toward the anode in proportion to the number of breaks present in the DNA, and it forms a “comet”. The highly degraded DNA is found in the “tail” of the comet. An intact cell remains round, and its DNA is then packed into the area of the comet “head”.
The evaluation of DNA breaks was done using image-analyzer software that enables the percentage of DNA degradation to be determined, by means of a quantitative evaluation of the “tail moment”, a parameter defined as the product of the length of the comet by the percentage of DNA in its distal portion.

[2] = test system: normal human keratinocytes; assay: Ultrastructure of mitochondria by electron microscopy; type: cell-based; details: 1% solution of a 50-ppm mother-solution for 72 hours
Method: The aim of this study was to determine the action of the SEQ ID No. 2 peptide on mitochondria, by observing the ultrastructures with the electron microscope.
Protocol: Normal human keratinocytes were treated with a 1% solution of a 50-ppm mother-solution of SEQ ID No. 2 peptide for 72 hours. Negative controls were achieved under the same conditions, but in the absence of the said peptide.
The cells were then fixed using Karnovsky's fixative (20 ml of 16% paraformaldehyde/8 ml of 50% glutaraldehyde/25 ml of 0.2 M sodium phosphate buffer/25 ml of water) for 1 hr at ambient temperature, and then left overnight at 4° C. The culture media were scraped into the Karnovsky's fixative and then the cells were centrifuged for 5 minutes at 5000 rpm. The supernatant was isolated and the pellet resuspended in 1 ml of 0.1 M cacodylate. The samples were then kept at 4° C. until their processing for electron microscopy observation.

dermal fibroblasts = assay: Intracellular ATP synthesis, ATP Bioluminescence Assay Kit HS II; type: cell-based; details: 1% solution of a 50-ppm peptide solution
Method: The aim of this study was to determine the effect of the SEQ ID No. 1 peptide on mitochondrial activity. It is the ATP produced by the mitochondria that serves as a biochemical marker for this activity.
Protocol: This study was conducted using an ATP Bioluminescence Assay Kit HS II (Roche Applied Science). Dermal fibroblasts were treated with a 1% solution of a 50-ppm solution containing the SEQ ID No. 1 peptide, representative of the peptide family according to the invention, for a period of 1 to 3 hours. At the end of the incubation time, the tubes were emptied of their medium and rinsed with 2 ml of cold PBS before adding 250 μl of a lysing buffer provided in the kit. The cells of each tube were then scraped up and collected in 14-ml tubes. Each tube was rinsed with 2×500 μl of cold PBS, and the whole was collected again in the respective tubes. […] The ATP measurement was performed on these samples: 50 μl of this dilution was placed in a Luma cuvette and 50 μl of […] was added. After 10 seconds, the luminescence reading was begun. The values were standardized relative to the quantity of proteins for each sample. The measurements were made using the Biocounter M2010A Luma®/3M equipment.

In the case of `CC[C@H](C)[C@H](NC(=O)[C@H](CS)NC(=O)[C@@H](N)CO)C(=O)N[C@@H](CC(N)=O)C(=O)N[C@H](C(N)=O)[C@@H](C)O` [SEQ ID No. 2, Ser-Cys-Ile-Asn-Thr-NH2] (H-SCINT-NH2; N-terminus assumed), the “increase in total enzymatic activity of aconitase compared with untreated control cells” value (aconitase; not irradiated, 1% solution of a 50-ppm peptide, n=5) is reported as 56.3%, the “% viability” value (human dermal fibroblasts) is reported as 121.13% and the “enzymatic activity of mitochondrial aconitase” value (mitochondrial aconitase) is reported as “strongly stimulates”. For the same molecule, the “reduction of "tail moment" (DNA damage)” value ([1]; versus UVB control) was 25%, the “Measurement of "tail moment"” value ([1]; UVB control 106,563) was 80,221 and the “% of "tail moment" relative to UV control” value ([1]; UVB control = 100) was 75%. The “ultrastructural characteristics of the organelles” value [2] was “ultrastructural characteristics suggesting an increase in metabolic activity”.

For “Ser-Cys-Ile-Asn-Ser (SCINS) [SEQ ID No. 5]”, the “total enzymatic activity of aconitase after UVB irradiation” value (aconitase; UVB 100 mJ/cm^2, peptide treatment before (48 hr) and after (24 hr) irradiation) was “enabled the observed reduction to be limited”.

“Ser-Cys-Ile-Asn-Thr (SCINT) [SEQ ID No. 1]” was tested, and the “amount of intracellular ATP compared to the untreated cells” value (dermal fibroblasts; after 3 hours) was “clear increase” and the “increase in the amount of intracellular ATP compared to the untreated cells” value (dermal fibroblasts; after one hour) was 43%.

— US8440615B2, “Pharmaceutical and/or cosmetic composition containing active-principle activators of aconitase” (Societe d'Extraction des Principes Actifs (Vincience), priority 2007, dated 2013)
